Reference: ChEMBL document CHEMBL1131868, “Alpha-trifluoromethylated acyloins induce apoptosis in human oral tumor cell lines” (1999)
Where a name gives a salt, the structure may show the parent alone.

Key:
Type in all cases: functional
[1] = In vitro cytotoxic activity against human gingival fibroblasts (HGF).
[2] = In vitro cytotoxic activity against human squamous cell carcinoma (HSC-2) cells.
[3] = In vitro cytotoxic activity against human salivary gland tumor (HSG) cells.

O=C(c1ccccc1)C(F)(F)F
CC50 [1]: > 2900 µM
CC50 [2]: > 2900 µM
CC50 [3]: 2700 µM

Cc1nc(CC(=O)C(F)(F)F)oc1C
CC50 [1]: 77 µM
CC50 [2]: < 68 µM
CC50 [3]: 150 µM

O=C(Cc1nc2ccccc2s1)C(F)(F)F
CC50 [1]: 430 µM
CC50 [2]: 150 µM
CC50 [3]: 390 µM

C=CCOC(=O)N1C=C(C(=O)C(F)(F)F)CC1
CC50 [1]: 140 µM
CC50 [2]: 110 µM
CC50 [3]: 240 µM

O=C(c1cccs1)C(F)(F)F
CC50 [1]: > 2800 µM
CC50 [2]: 1900 µM
CC50 [3]: 2700 µM

O=C(c1nc2ccccc2o1)C(F)(F)F
CC50 [1]: 2200 µM
CC50 [2]: 580 µM
CC50 [3]: 1700 µM

O=C(c1c[nH]c2ccccc12)C(F)(F)F
CC50 [1]: 2000 µM
CC50 [2]: 94 µM
CC50 [3]: 1300 µM

O=C(Oc1ccccc1)N1C=C(C(=O)C(F)(F)F)CC1
CC50 [1]: 620 µM
CC50 [2]: 230 µM
CC50 [3]: 270 µM

OC(Cc1ccccc1)C(F)(F)F (centres undefined)
CC50 [1]: 1700 µM
CC50 [2]: 460 µM
CC50 [3]: 1300 µM

O=C(Cc1ccccc1)C(O)C(F)(F)F (centres undefined)
CC50 [1]: 310 µM
CC50 [2]: 22 µM
CC50 [3]: 110 µM

O=C(NCCCC(=O)C(O)C(F)(F)F)c1ccccc1 (centres undefined)
CC50 [1]: 420 µM
CC50 [2]: 31 µM
CC50 [3]: 400 µM

O=C(C(=O)C(F)(F)F)c1ccccc1
CC50 [1]: 510 µM
CC50 [2]: 79 µM
CC50 [3]: 390 µM

O=C(Cc1ccccc1)C(F)(F)F
CC50 [1]: 2200 µM
CC50 [2]: 1400 µM
CC50 [3]: 1600 µM

O=C(CC(O)C(F)(F)F)c1ccccc1 (centres undefined)
CC50 [1]: 1700 µM
CC50 [2]: 240 µM
CC50 [3]: 1500 µM

OC(c1ccccc1)C(F)(F)F (centres undefined)
CC50 [1]: 2200 µM
CC50 [2]: 1100 µM
CC50 [3]: 2100 µM

COC(=O)CC(=O)C(F)(F)F
CC50 [1]: > 2900 µM
CC50 [2]: 1300 µM
CC50 [3]: 1800 µM

O=C(Cc1ccccn1)C(F)(F)F
CC50 [1]: 2100 µM
CC50 [2]: 620 µM
CC50 [3]: 1600 µM

CC(=O)CC(=O)C(F)(F)F
CC50 [1]: > 3200 µM
CC50 [2]: 2500 µM
CC50 [3]: 3200 µM

O=C(CC(=O)C(F)(F)F)c1ccccc1
CC50 [1]: 1400 µM
CC50 [2]: 150 µM
CC50 [3]: 420 µM

O=C(Cc1nc2ccccc2[nH]1)C(F)(F)F
CC50 [1]: 200 µM
CC50 [2]: 53 µM
CC50 [3]: 340 µM

COc1cccc2c1C(=O)c1c(O)c3c(c(O)c1C2=O)C[C@@](O)(C(=O)CO)C[C@@H]3O[C@H]1C[C@H](N)[C@H](O)[C@H](C)O1 [DOXORUBICIN HYDROCHLORIDE]
CC50 [2]: 4.1 µM

O=C(OC1c2ccccc2-c2ccccc21)N1C=C(C(=O)C(F)(F)F)CC1
CC50 [1]: 230 µM
CC50 [2]: 140 µM
CC50 [3]: 180 µM

O=C(c1ccc[nH]1)C(F)(F)F
CC50 [1]: 2100 µM
CC50 [2]: 870 µM
CC50 [3]: 1800 µM

O=C(Cc1nc2ccccc2o1)C(F)(F)F
CC50 [1]: 630 µM
CC50 [2]: 43 µM
CC50 [3]: 79 µM

O=C(c1ccccc1)C(O)C(F)(F)F (centres undefined)
CC50 [1]: 1300 µM
CC50 [2]: 36 µM
CC50 [3]: 240 µM

CCCCCCC(=O)C(O)C(F)(F)F (centres undefined)
CC50 [1]: 790 µM
CC50 [2]: 90 µM
CC50 [3]: 220 µM

CC(=O)C(O)c1ccccc1 (centres undefined)
CC50 [1]: 3200 µM
CC50 [2]: 1700 µM
CC50 [3]: 2900 µM
